Data taken from US20170183637A1, “SPLIT RECOMBINANT LUCIFERASE, AND ANALYSIS METHOD USING THEREOF” (OLYMPUS CORPORATION, priority 2014, published 2017).

Key:
[1] = system: 5HT2A receptor-expressing HEK293 cells; test: High-speed luminescence imaging of changes in calcium ion concentrations upon 5HT stimulation (Experiment 11); type: cell-based, human; conditions: 5HT 10 μM; cpSfRE55-CaM in 5HT2A receptor-expressing HEK293 cells; images every 500 milliseconds; FIG. 15
Protocol: The cells cultured in Procedure 1 were seeded onto 35 mm-diameter glass bottom dishes at a density of 2×10^5 cells/dish and cultured overnight in a 5% CO2 incubator. The human 5HT2A receptor expression plasmid pcDNA/5HT2AR and luminescent calcium indicator expression plasmid were transferred into the cells by electroporation using NEPA21 and the cells were cultured overnight in a 5% CO2 incubator.
2 mM luciferin (Promega) was added to the culture medium of the culture obtained in Procedure 2 and the culture was allowed to stand for 1 h. The culture dish was loaded onto a luminescence microscope (LV-200, Olympus) and time-lapse image capturing was performed to acquire luminescence images at an interval of 500 milliseconds. Luminescence observation conditions were as follows: magnification of objective lens:=40×, exposure time=200 milliseconds, and binning=2×2. Using an EM-CCD camera (iXon, Andor), luminescence images were taken and transferred to a personal computer. […]
Regions of interest (ROIs) were designated for each luminescence image captured in Procedure 3 and for each luminescence image captured in Procedure 4. […] The luminescence images were analyzed using MetaMorph software (Universal imaging). […]

HEK293 cells [2] = test: Luminescence measurement of changes in intracellular calcium level in HEK293 cells upon ATP stimulation (Experiment 9); type: cell-based; conditions: ATP 200 μM, luciferin 2 mM, luminometer, FIG. 13
Protocol: HEK293 cells (1×10^6 cells) were collected by centrifugation and luminescent calcium indicator expression vectors were transferred into the cells by electroporation using NEPA21. The transfected HEK293 cells were seeded into a 24-well multiplate at a concentration of 1×10^5 cells/well and cultured overnight in a 5% CO2 incubator.
After rinsing the cells with CO2-independent culture medium twice, 200 μL of CO2-independent culture medium containing D-luciferin (final conc.=2 mM) was added and the plate was allowed to stand for 15 min.
The plate was placed in a luminometer (Luminescencer-JNR II, ATTO), and luminescence intensity for pre- and post-ATP (200 μM) stimulation was measured over time.
Luminescent calcium indicators were transferred into HEK293 cells and the cells were cultured overnight. The cells were rinsed with CO2-independent culture medium, luciferin was added to the CO2-independent culture medium to a final luciferin concentration of 2 mM, and the culture was allowed to stand for 15 min, followed by measurement of luminescence intensity using a luminometer.

HEK293 cells [3] = test: Luminescence-based calcium imaging in HEK293 cells upon ATP stimulation (Experiment 10); type: cell-based; conditions: FIG. 14
Protocol: HEK293 cells were acquired from ATCC and cultured in a 5% CO2 incubator in Earle's MEM culture medium (GIBCO) supplemented with 10% Fetal Bovine Serum and 1× Nonessential amino acids.
The cultured HEK293 cells were seeded onto 35 mm-diameter glass bottom dishes at a density of 2×10^5 cells/dish and cultured overnight in a 5% CO2 incubator. Luminescent calcium indicator expression plasmids were transferred into the HEK293 cells by electroporation using NEPA21 and cultured overnight in a 5% CO2 incubator.
2 mM luciferin (Wako Pure Chemical industries, Ltd.) was added to the culture medium and the culture was allowed to stand for 1 h. The culture dish was then loaded onto a luminescence microscope (LV-200, Olympus) and time-lapse image capturing was performed to acquire luminescence images at an interval of 10 sec. Luminescence observation conditions were as follows: magnification of objective lens=40×, exposure time=5 sec, and binning=1×1. An EM-CCD camera (iXon, Andor) was used as a CCD camera, and luminescence images were transferred to a personal computer configured as an image analyzer.
Changes in luminescence intensity of luminescent calcium indicators in response to changes in intracellular calcium ion concentration upon addition of ATP in culture medium were imaged. […] The luminescence images were transferred to the PC every 10 sec. […]

E. coli (JM109 (DE3)) = test: Luminescence activity of permutated and heterologous permutated firefly luciferase expressed in E. coli (Experiments 1 and 2); type: cell-based; conditions: Bright-Glo, 5 min room temperature, counts per 10 sec, FIG. 3
Protocol: The pRSET vector containing the permutated firefly luciferase gene was transformed into JM109(DE3) strain of E. coli and cultured overnight at 37° C. To 50 μL of culture was added 50 μL of Bright-Glo (Promega) and the culture was allowed to stand for 5 min at room temperature. Luminescence level for 10 sec was then measured using a luminometer (Luminescencer-JNR II, ATTO).
The prepared expression vector was transformed into E. coli (JM109 (DE3)) and cultured overnight in LB medium. To 50 μL of culture was added an equal volume of Bright-Glo and the culture was allowed to stand for 5 min at room temperature. Luminescence level of the reaction solution was reported as counts per 10 sec measured with the luminometer. As a control, permutated luciferase (GL4) derived from the North American firefly (Pholinus pyralis) luciferase was used. In FIG. 3, luminescence activities of GL4-derived and OKI-derived permutated luciferases are shown in terms of relative values with the activity of GL4 being 1. The vertical axis in FIG. 3 represents relative luminescence level.
The pRSET vector containing the heterologous permutated luciferase gene was transformed into JM109(DE3) strain of E. coli and cultured overnight at 37° C. in LB medium. […] Luminescence level for 10 sec was then measured using a luminometer (Luminescencer-JNR II, ATTO). […]

NCCc1c[nH]c2ccc(O)cc12 [5HT, Serotonin]
luminescence intensity response of indicator-expressing cells to 5HT stimulation [1]: cells that exhibited oscillation, as well as cells that exhibited a transient reduction in luminescence intensity

Nc1ncnc2c1ncn2[C@@H]1O[C@H](COP(=O)(O)OP(=O)(O)OP(=O)(O)O)[C@@H](O)[C@H]1O [ATP, adenosine tri phosphate]
change in luminescence intensity of luminescent calcium indicator upon ATP stimulation (HEK293 cells [2]): reductions in luminescence intensity | time course of luminescence intensity change caused by ATP stimulation (HEK293 cells [3]): transient | luminescence intensity of indicator-expressing cells after ATP stimulation (single-cell imaging) (HEK293 cells [3]; luciferin 2 mM, exposure 5 sec): decreased levels of luminescence intensity

B1: OKI359: C-terminal fragment, residues 359 to 562 of OKI-derived luciferase; names the permutated luciferase made with OKI-N (protein)
chain: KPGACGKVAPFFSAKIVDLDTSKTLGVNQRGELCLKGPMIMKGYVNNPEATNALIDKDGWLHSGDLAYYDKDGHFFIVDRLKSLIKYQGYQVPPAELESILLQHPFIFDAGVAGIPDADAGELPAAVVVLEEGKTMTEQEVMDYVAGQVTASKRLRGGVKFVDEVPKGLTGKIDSRKIREMLTMGKKSKL
luminescence activity (relative luminescence level, GL4 being 1) (E. coli (JM109 (DE3))): high levels of luminescence activity
